This is an account of results in patent US3987200A, “Method for increasing cardiac contractility” (Eli Lilly and Company, priority 1975, dated 1976).

The nature of data set [1]: LD50 in mice. The settings on record: mouse, in vivo.
For data set [2], the system named is dogs. As to the kind of experiment: Cardiac and Blood Pressure Effects in dogs (Table I). The data set is classed as in vivo. Particulars: for Contractile Potency ED50 / Contractile Potency ED100: i.v. infusion; for Blood Pressure Change at Effective dose ED50 / Heart Rate Increase at Effective dose ED50 / Blood Pressure Change at Effective dose ED100 / Heart Rate Increase at Effective dose ED100: i.v.

Where a name gives a salt, the structure may show the parent alone.

One may read the LD50 as the dose expected to kill half of the subjects tested. Read a low LD50 as greater toxicity.

Take `CC(Cc1ccc(O)c(O)c1)NCCCc1ccc(O)cc1` (racemic) [3,4-dihydroxy-N-[3-(4-hydroxyphenyl)-n-propyl]-α-methyl-β-phenethylamine hydrobromide]: the LD50 in data set [1] stood at 82.7 ± 5.72 mg/kg.
Consider `CC(CCc1ccc(O)cc1)NCCc1ccc(O)c(O)c1` (racemic) [dl-, 3,4-dihydroxy-N-[3-(4-hydroxyphenyl)-1-methyl-n-propyl]-β-phenethylamine], for which, in data set [1], the LD50 amounted to 73.2 ± 3.68 mg/kg. Besides, in data set [2], the “Contractile Potency ED50” value stood at 3 ± 1 µg/kg/min and the “Contractile Potency ED100” value is 10 ± 3 µg/kg/min. Also, in data set [2] (at ED50), the “Blood Pressure Change at Effective dose ED50” value is given as 3 ± 5 mm. Hg and the “Heart Rate Increase at Effective dose ED50” value worked out at 13 ± 4 Beats/minute. Further, in data set [2] (at ED100), the “Blood Pressure Change at Effective dose ED100” value is given as 6 ± 6 mm. Hg and the “Heart Rate Increase at Effective dose ED100” value is reported as 30 ± 4 Beats/minute.
Regarding `CC(CCc1ccc(O)cc1)NCCc1ccc(O)c(O)c1` (single isomer, unassigned) [d-, d-3,4-dihydroxy-N-[3-(4-hydroxyphenyl)-1-methyl-n-propyl]-β-phenethylamine], in data set [2], the “Contractile Potency ED50” value was 2.8 ± .3 µg/kg/min and the “Contractile Potency ED100” value is 6.1 ± .4 µg/kg/min. For the same compound, in data set [2] (at ED50), the “Blood Pressure Change at Effective dose ED50” value was 8 ± 2 mm. Hg and the “Heart Rate Increase at Effective dose ED50” value is 11 ± 3 Beats/minute. For the same compound, in data set [2] (at ED100), the “Blood Pressure Change at Effective dose ED100” value is 6 ± 3 mm. Hg and the “Heart Rate Increase at Effective dose ED100” value was found to be 28 ± 7 Beats/minute.
`CC(CCc1ccc(O)cc1)NCCc1ccc(O)c(O)c1` (single isomer, unassigned) [l-, l-3,4-dihydroxy-N-[3-(4-hydroxyphenyl)-1-methyl-n-propyl]-β-phenethylamine hydrochloride]: in data set [2] (Table I data), the “activity on contractile force (in words)” value is on record as “somewhat less active than either the d-isomer or dl-racemate on contractile force” and the “pressor activity (in words)” value is recorded as “marked pressor activity”. For the same compound, in data set [2] (hydrochloride), the “Contractile Potency ED50” value was 9 ± 2 µg/kg/min and the “Contractile Potency ED100” value was 25 ± 5 µg/kg/min. In data set [2] (at ED50, hydrochloride), the “Blood Pressure Change at Effective dose ED50” value was found to be 39 ± 3 mm. Hg and the “Heart Rate Increase at Effective dose ED50” value amounted to 8 ± 5 Beats/minute. Also, in data set [2] (at ED100, hydrochloride), the “Blood Pressure Change at Effective dose ED100” value came out at 63 ± 4 mm. Hg and the “Heart Rate Increase at Effective dose ED100” value was determined as 28 ± 9 Beats/minute.
